# Data published in patent US11285127B2, “Compositions and methods for lowering triglycerides without raising LDL-C levels in a subject on concomitant statin therapy” (Amarin Pharmaceuticals Ireland Limited, priority 2013, dated 2022).
# Assays:
# [1] = test system: patients with fasting triglyceride levels >200 mg/dl and <500 mg/dl despite statin therapy; test: 12-week study: oxidized LDL; assay type: in vivo, human; conditions: MITT; for Oxidized LDL Percent change from Baseline Median (IQR): Week 12 endpoint; for Oxidized LDL Difference from placebo Estimated median: percent change from baseline to Week 12 endpoint
# Text: (§1) Parameters (a)-(z) can be measured in accordance with any clinically acceptable methodology. For example, triglycerides, total cholesterol, HDL-C and fasting blood sugar can be sample from serum and analyzed using standard photometry techniques. VLDL-TG, LDL-C and VLDL-C can be calculated or determined using serum lipoprotein fractionation by preparative ultracentrifugation and subsequent quantitative analysis by refractometry or by analytic ultracentrifugal methodology. Apo A1, Apo B and hsCRP can be determined from serum using standard nephelometry techniques. Lipoprotein (a) can be determined from serum using standard turbidimetric immunoassay techniques. LDL particle number and particle size can be determined using nuclear magnetic resonance (NMR) spectrometry. Remnants lipoproteins and LDL-phospholipase A2 can be determined from EDTA plasma or serum and serum, respectively, using enzymatic immunoseparation techniques. Oxidized LDL, intercellular adhesion molecule-1 and interleukin-2 levels can be determined from serum using standard enzyme immunoassay techniques. These techniques are described in detail in standard textbooks, for example Tietz Fundamentals of Clinical Chemistry, 6th Ed. (Burtis, Ashwood and Borter Eds.), WB Saunders Company.
# (§2) A multi-center, placebo-controlled, randomized, double-blind, 12-week study was performed to evaluate the efficacy and safety of >96% E-EPA in patients with fasting triglyceride levels >200 mg/dl and <500 mg/dl despite statin therapy (the mean of two qualifying entry values needed to be >185 mg/dl and at least one of the values needed to be >200 mg/dl). The primary objective of the study was to determine the efficacy of >96% E-EPA 2 g daily and 4 g daily, compared to placebo, in lowering fasting TG levels in patients with high risk for cardiovascular disease and with fasting TG levels 200 mg/dl and <500 mg/dl, despite treatment to LDL-C goal on statin therapy.
# (§3) The secondary objectives of this study were the following: • 1. To determine the safety and tolerability of >96% E-EPA 2 g daily and 4 g daily; • 2. To determine the effect of >96% E-EPA on lipid and apolipoprotein profiles including total cholesterol (TC), non-high-density lipoprotein cholesterol (non-HDL-C), low density lipoprotein cholesterol (LDL-C), high density lipoprotein cholesterol (HDL-C), and […]; • 3. To determine the effect of >96% E-EPA on lipoprotein associated phospholipase A2 (Lp-PLA2) from baseline to week 12; • 4. To determine the effect of >96% E-EPA on low-density lipoprotein (LDL) particle number and size; • 5. To determine the effect of >96% E-EPA on oxidized LDL; • 6. To determine the effect of >96% E-EPA on fasting plasma glucose (FPG) and hemoglobin A1c (HbA1c); • 7. To determine the effect of >96% E-EPA on insulin resistance; • 8. To determine the effect of >96% E-EPA on high-sensitivity C-reactive protein (hsCRP); • 9. To determine the effects of >96% E-EPA 2 g daily and 4 g daily on the incorporation of fatty acids into red blood cell membranes and into plasma phospholipids; • 10. To explore the relationship between baseline fasting TG levels and the reduction in fasting TG levels; and • 11. To explore the relationship between changes of fatty acid concentrations in plasma and red blood cell membranes, and the reduction in fasting TG levels.
# (§4) The primary efficacy variable for the double-blind treatment period was percent change in TG from baseline to Week 12 endpoint. […]
# [2] = test system: patients with fasting triglyceride levels >200 mg/dl and <500 mg/dl despite statin therapy; test: 12-week study: lipoprotein particle size (VLDL, LDL, HDL; nuclear magnetic resonance); assay type: in vivo, human; conditions: for LDL Particle Size, Week 12 EP Median (IQR): MITT; for LDL Particle Size, Percent change from Baseline, Median (IQR) / LDL Particle Size, Difference from placebo, Estimated median: Week 12, MITT; for LDL Particle Size, Difference from placebo, Estimated median: difference in percent change
# Text: as §1, §2, §3, §4
# [3] = 2 g/day E-EPA (n = 221), 12 weeks
# [4] = 2 g/day E-EPA (n = 222), 12 weeks
# [5] = 2 g/day, 12 weeks, Hodges-Lehmann median
# [6] = 4 g/day E-EPA (n = 215), 12 weeks
# [7] = 4 g/day E-EPA (n = 216), 12 weeks
# [8] = 4 g/day, 12 weeks, Hodges-Lehmann median, listed as E-EPA
# [9] = IPE 4 g/day (n = 215), 12 weeks
# [10] = IPE 4 g/day (n = 216), 12 weeks
# [11] = IPE 4 g/day vs placebo, 12 weeks, Hodges-Lehmann median
compound,measurement,setting,value
"CC/C=C\C/C=C\C/C=C\C/C=C\C/C=C\CCCC(=O)OCC [AMR101, ethyl eicosapentaenoate]",Oxidized LDL Week 12 EP Median (IQR),[1]; AMR101 2 g/d + statin,55.8 (22.8) U/L
same,Oxidized LDL Percent change from Baseline Median (IQR),[1]; AMR101 2 g/d + statin,2.6 (18.3) %
same,Oxidized LDL Difference from placebo Estimated median,[1]; AMR101 2 g/d + statin,−5.8%
same,Oxidized LDL Week 12 EP Median (IQR),[1]; AMR101 4 g/d + statin,51.4 (17.5) U/L
same,Oxidized LDL Percent change from Baseline Median (IQR),[1]; AMR101 4 g/d + statin,−4.8 (19.6) %
same,Oxidized LDL Difference from placebo Estimated median,[1]; AMR101 4 g/d + statin,−13.3%
same,"LDL particle size, % Δ from baseline (median)",[2]; [3],+0.5%
same,"LDL particle size, End (median)",[2]; [3],20.0 nm
same,"HDL particle size, % Δ from baseline (median)",[2]; [4],0.0%
same,"HDL particle size, End (median)",[2]; [4],8.6 nm
same,"VLDL particle size, % Δ from baseline (median)",[2]; [4],−5.0%
same,"VLDL particle size, End (median)",[2]; [4],53.2 nm
same,"HDL particle size, Placebo-Adjusted Median Change from Baseline, 2 g/d",[2]; [5],0.0%
same,"LDL particle size, Placebo-Adjusted Median Change from Baseline, 2 g/d",[2]; [5],+0.5%
same,"VLDL particle size, Placebo-Adjusted Median Change from Baseline, 2 g/d",[2]; [5],−4.8%
same,"LDL particle size, % Δ from baseline (median)",[2]; [6],+0.5%
same,"LDL particle size, End (median)",[2]; [6],20.0 nm
same,"HDL particle size, % Δ from baseline (median)",[2]; [7],−1.1%
same,"HDL particle size, End (median)",[2]; [7],8.6 nm
same,"VLDL particle size, % Δ from baseline (median)",[2]; [7],−8.1%
same,"VLDL particle size, End (median)",[2]; [7],51.2 nm
same,"HDL particle size, Placebo-Adjusted Median Change from Baseline, 4 g/d",[2]; [8],−1.2%
same,"LDL particle size, Placebo-Adjusted Median Change from Baseline, 4 g/d",[2]; [8],+0.5%
same,"VLDL particle size, Placebo-Adjusted Median Change from Baseline, 4 g/d",[2]; [8],−7.7%
same,"LDL Particle Size, Week 12 EP Median (IQR)","[2]; AMR101 2g/d + statin, n 221",20.0 (0.6) nm
same,"LDL Particle Size, Percent change from Baseline, Median (IQR)",[2]; AMR101 2g/d + statin,0.5 (2.5) %
same,"LDL Particle Size, Difference from placebo, Estimated median",[2]; AMR101 2g/d + statin,0.5%
same,"LDL Particle Size, Week 12 EP Median (IQR)","[2]; AMR101 4g/d + statin, n 215",20.0 (0.6) nm
same,"LDL Particle Size, Percent change from Baseline, Median (IQR)",[2]; AMR101 4g/d + statin,0.5 (2.5) %
same,"LDL Particle Size, Difference from placebo, Estimated median",[2]; AMR101 4g/d + statin,0.5%
same,"LDL particle size, Change From Baseline, % (median)",[2]; [9],0.5%
same,"LDL particle size, End of Treatment (median)",[2]; [9],20.0 nm
same,"HDL particle size, Change From Baseline, % (median)",[2]; [10],−1.1%
same,"HDL particle size, End of Treatment (median)",[2]; [10],8.6 nm
same,"VLDL particle size, Change From Baseline, % (median)",[2]; [10],−8.1%
same,"VLDL particle size, End of Treatment (median)",[2]; [10],51.2 nm
same,"HDL particle size, Median Change From Baseline IPE 4 g/day vs Placebo, %",[2]; [11],−1.2%
same,"LDL particle size, Median Change From Baseline IPE 4 g/day vs Placebo, %",[2]; [11],0.5%
same,"VLDL particle size, Median Change From Baseline IPE 4 g/day vs Placebo, %",[2]; [11],−7.7%
